Legend:
[1] = biological target: muscarinic receptors ([^3 H]-OXO-M binding); test: Inhibition of [^3 H]-oxotremorine-M ([^3 H]-OXO-M) binding, rat cerebral cortex; design: species or system rat (male Hooded Lister); conditions: [^3 H]-OXO-M 1.88 nM, 37° C., geometric mean, n = 2
[2] = biological target: muscarinic receptors ([^3 H]-QNB binding); design: species or system rat (male Hooded Lister); conditions: rat cerebral cortex; [^3 H]-QNB 0.27 nM; geometric mean; n = 2
[3] = Functional studies in vivo: body tremor; design: species or system mouse (male CD1); conditions: mouse, read-out: Tremor ED50 (dose inducing 50% of the maximum score)
Method: (§1) Male mice (CD1, Charles River UK, 25-35 g) were used in the in vivo experiments. Animals were housed in groups of 10 and allowed food and water ad libitum. Two hours prior to the experiment the animals were rehoused in groups of 5 and allowed to acclimatize to their new environment. Each group was assigned one dose of test compound.
(§2) Test compounds or vehicle were administered by either the subcutaneous (sc) or oral (po) routes. Animals were subjectively assessed for signs of salivation and body tremor 15, 30, 45, 60, 90, 120, 150, 180, 240 and 300 minutes post dose, using a scoring system: 0=absent; 1=mild; 2=moderate; 3=severe. Changes in core body temperature, a measure of central activity, were recorded at the same timepoints using a rectal probe (Comark Electronic Thermometer Type 9001 )

[4] = Functional studies in vivo: salivation; design: species or system mouse (male CD1); conditions: mouse, read-out: Salivation ED50 (dose inducing 50% of the maximum score)
Method: as §1, §2

[5] = Functional studies in vivo: hypothermia (core body temperature); design: species or system mouse (male CD1); conditions: mouse, 95% CL on next line
Method: as §1, §2

With CO/N=C(\C#N)[C@H]1C[N+]2([O-])CCC1CC2 [Compound X, [R-(Z)]-α-(methoxyimino)-α-(1-azabicyclo[2.2.2]oct-3-yl)acetonitrile-1-oxide] the IC50 [1] was 2.86 µM, the IC50 [2] was 68.7 µM and the ED50 ([3]; oral) was greater than 30 mg/kg. The ED50 ([3]; sc, subcutaneous) was greater than 30 mg/kg, the ED50 ([4]; oral) was less than 0.3 mg/kg and the ED50 ([4]; sc, subcutaneous, 95% CL on next line) was 2.38 mg/kg. The “Hypothermia ED3° (dose inducing 3° fall in core body temperature)” value ([5]; oral) was 5.8 mg/kg and the “Hypothermia ED3° (dose inducing 3° fall in core body temperature)” value ([5]; subcutaneous) was 21.3 mg/kg.

— US5675007A (priority 1994, dated 1997)
